Reference: US20220017512A1 (SHANGHAI ENNOVABIO PHARMACEUTICALS CO., LTD., priority 2018, published 2022)

Experiments:
Format in all cases: biochemical
Recombinant human TRKA = molecular target: T1, Recombinant human TRKA (Homo sapiens, UniProt P04629); test: In vitro activity test on TRKA kinase (HTRF KinEASE TK); conditions: 14.68 μM ATP, 40 min
T1 construct: purchased Carna Biosciences
Experimental: (§1) Biological Test Example 1 In Vitro Activity Test on TRKA, TRKB, TRKC Kinase
(§2) Recombinant human TRKA, TRKB, TRKC proteins were purchased from Carna Biosciences. HTRF KinEASE TK kit was purchased from Cisbio Bioassays. Synergy Neo 2 of Biotek was used to read the plate.
(§3) The tested compound was subjected to 3-fold serial dilution to reach a final concentration of 1 μM to 0.05 nM (10 concentrations), duplicates for each concentration; and the DMSO concentration in the detection reaction was 1%.
0.2 ng/μL TRKA protein kinase, 1 μM TK Substrate-biotin polypeptide substrate, 14.68 μM ATP, 1× enzymatic buffer, 5 mM MgCl2, and 1 mM DTT. The detection plate was White Proxiplate384-Plus plate (PerkinElmer), and incubated at room temperature for 40 min, and the assay volume was 10 μL.
(§4) 10 μL of detection reagent was added to the plate (containing 0.125 μM SA-XL665 and 5 μL 1×TK-Antibody) and incubated overnight at room temperature, and Synergy Neo 2 was used to read the plate.
(§5) The 665/620 Ratio was converted according to the following formula into inhibition rate (%)=(1−Ratiotest/Ratiomax)×100%. Ratiomax was a positive control without tested compound, and Ratiotest was the value of each concentration of different compounds. IC50 (nM) data was obtained by 4 parameter curve fitting (see Table 1).

Recombinant human TRKB = molecular target: T2, Recombinant human TRKB (Homo sapiens, UniProt Q16620); test: In vitro activity test on TRKB kinase (HTRF KinEASE TK); conditions: 4.77 μM ATP, 50 min
T2 construct: purchased Carna Biosciences
T2 sequence (Q16620 32-822): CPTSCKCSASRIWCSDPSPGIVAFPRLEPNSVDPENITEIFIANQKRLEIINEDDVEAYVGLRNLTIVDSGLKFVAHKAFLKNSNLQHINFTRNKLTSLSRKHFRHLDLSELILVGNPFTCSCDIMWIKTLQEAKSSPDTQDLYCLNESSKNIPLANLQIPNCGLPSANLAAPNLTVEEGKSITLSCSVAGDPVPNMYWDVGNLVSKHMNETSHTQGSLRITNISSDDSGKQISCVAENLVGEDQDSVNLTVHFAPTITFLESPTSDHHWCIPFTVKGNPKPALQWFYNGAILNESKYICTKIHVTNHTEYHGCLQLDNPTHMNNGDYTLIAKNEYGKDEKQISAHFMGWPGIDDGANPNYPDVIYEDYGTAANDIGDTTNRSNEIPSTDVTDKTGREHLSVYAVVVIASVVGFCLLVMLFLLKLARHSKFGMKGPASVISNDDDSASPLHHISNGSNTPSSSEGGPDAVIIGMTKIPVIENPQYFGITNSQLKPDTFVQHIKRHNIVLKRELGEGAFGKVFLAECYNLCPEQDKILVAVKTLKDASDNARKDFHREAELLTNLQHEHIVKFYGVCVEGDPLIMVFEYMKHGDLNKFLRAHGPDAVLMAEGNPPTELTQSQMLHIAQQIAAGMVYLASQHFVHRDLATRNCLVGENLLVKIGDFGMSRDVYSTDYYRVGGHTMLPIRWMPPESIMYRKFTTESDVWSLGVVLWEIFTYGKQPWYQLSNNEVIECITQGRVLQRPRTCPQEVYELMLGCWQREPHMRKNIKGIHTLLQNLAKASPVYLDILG
Experimental: as §1, §2, §3
0.037 ng/μL TRKB protein kinase, 1 μM TK Substrate-biotin polypeptide substrate, 4.77 μM ATP, 1× enzymatic buffer, 5 mM MgCl2, and 1 mM DTT. The detection plate was White Proxiplate 384-Plus plate (PerkinElmer), and incubated at room temperature for 50 min, and the assay volume was 10 μL.
as §4, §5

Recombinant human TRKC = molecular target: T3, Recombinant human TRKC (Homo sapiens, UniProt Q16288); test: In vitro activity test on TRKC kinase (HTRF KinEASE TK); conditions: 25.64 μM ATP, 40 min
T3 construct: purchased Carna Biosciences
T3 sequence (Q16288 32-839): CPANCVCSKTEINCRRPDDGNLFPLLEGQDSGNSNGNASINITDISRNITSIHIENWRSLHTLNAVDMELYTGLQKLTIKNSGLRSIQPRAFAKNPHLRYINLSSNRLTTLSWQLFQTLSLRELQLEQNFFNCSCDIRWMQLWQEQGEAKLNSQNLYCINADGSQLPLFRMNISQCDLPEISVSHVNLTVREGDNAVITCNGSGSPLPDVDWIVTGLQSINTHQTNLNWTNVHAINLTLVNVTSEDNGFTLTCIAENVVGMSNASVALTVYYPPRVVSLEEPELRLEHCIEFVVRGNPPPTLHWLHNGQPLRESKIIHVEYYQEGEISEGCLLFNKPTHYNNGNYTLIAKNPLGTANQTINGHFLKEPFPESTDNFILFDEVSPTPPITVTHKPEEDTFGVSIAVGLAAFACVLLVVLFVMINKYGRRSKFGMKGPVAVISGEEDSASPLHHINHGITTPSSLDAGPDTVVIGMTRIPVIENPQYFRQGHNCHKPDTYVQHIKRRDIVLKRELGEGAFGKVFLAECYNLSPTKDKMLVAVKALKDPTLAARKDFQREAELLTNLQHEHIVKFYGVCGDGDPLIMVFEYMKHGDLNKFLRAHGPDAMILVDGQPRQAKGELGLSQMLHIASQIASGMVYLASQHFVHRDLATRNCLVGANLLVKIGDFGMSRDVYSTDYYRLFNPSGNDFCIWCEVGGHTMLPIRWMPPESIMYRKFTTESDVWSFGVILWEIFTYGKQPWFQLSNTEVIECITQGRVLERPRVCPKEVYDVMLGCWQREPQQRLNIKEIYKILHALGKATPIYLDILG
Experimental: as §1, §2, §3
0.037 ng/μL TRKC protein kinase, 1 μM TK Substrate-biotin polypeptide substrate, 25.64 μM ATP, 1× enzymatic buffer, 5 mM MgCl2, and 1 mM DTT. The detection plate was White Proxiplate 384-Plus plate (PerkinElmer), and incubated at room temperature for 40 min, and the assay volume was 10 μL.
as §4, §5

[1] = molecular target: T4, recombinant human TRKA (G595R) (Homo sapiens, UniProt P04629, G595R); test: In vitro activity test on mutant TRKA (G595R) (HTRF KinEASE TK); conditions: 4.5 μM ATP, 30 min
T4 construct: purchased SignalChem
T4 sequence (P04629 33-796 G595R): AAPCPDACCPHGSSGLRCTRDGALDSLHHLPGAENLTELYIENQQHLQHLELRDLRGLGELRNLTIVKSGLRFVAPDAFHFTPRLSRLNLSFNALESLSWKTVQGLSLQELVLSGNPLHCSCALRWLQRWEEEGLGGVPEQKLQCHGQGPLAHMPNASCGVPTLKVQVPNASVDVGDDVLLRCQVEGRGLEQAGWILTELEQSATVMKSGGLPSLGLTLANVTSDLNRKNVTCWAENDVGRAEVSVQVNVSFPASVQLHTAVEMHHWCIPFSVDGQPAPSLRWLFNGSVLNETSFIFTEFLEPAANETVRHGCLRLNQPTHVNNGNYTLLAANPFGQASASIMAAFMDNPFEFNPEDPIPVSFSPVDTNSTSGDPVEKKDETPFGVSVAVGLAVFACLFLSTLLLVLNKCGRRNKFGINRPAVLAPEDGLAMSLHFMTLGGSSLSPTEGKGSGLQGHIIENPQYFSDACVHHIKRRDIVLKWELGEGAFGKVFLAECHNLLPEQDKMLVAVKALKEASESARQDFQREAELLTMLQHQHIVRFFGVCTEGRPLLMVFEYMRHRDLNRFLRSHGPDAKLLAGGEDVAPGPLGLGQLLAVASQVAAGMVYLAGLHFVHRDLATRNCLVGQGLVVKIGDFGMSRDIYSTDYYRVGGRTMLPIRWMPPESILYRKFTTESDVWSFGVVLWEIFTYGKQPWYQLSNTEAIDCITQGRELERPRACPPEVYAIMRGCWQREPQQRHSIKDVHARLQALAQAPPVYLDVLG
Experimental: (§6) Biological Test Example 2 In Vitro Activity Test on Mutant TRKA (G595R), TRKA (G667C) and TRKC (G623R)
(§7) The recombinant human TRKA (G595R), TRKA (G667C) and TRKC (G623R) proteins were purchased from SignalChem. HTRF kinEASE TK kit was purchased from CisbioBioassays. Synergy Neo 2 of Biotek was used to read the plate.
(§8) The tested compound was subjected to 4-fold serial dilution to reach a final concentration of 1 μM to 0.004 nM (10 concentrates), duplicates for each concentration; and 1% DMSO was present in the detection reaction.
0.12 ng/μL TRKA (G595R) kinase, 1 μM TK Substrate-biotin polypeptide substrate, 4.5 μM ATP, 1× enzymatic buffer, 5 mM MgCl2, and 1 mm DTT. The detection plate was White Proxiplate384-Plus plate (PerkinElmer), and incubated at room temperature for 30 min, and the assay volume was 10 μL.
as §4
(§9) The value of 665/620 Ratio minus the value of negative control wells without enzyme, then the obtained value was converted according to the following formula into inhibition rate (%)=(1−Ratiotest/Ratiomax)×100%. Ratiomax was a positive control without tested compound, and Ratiotest was the value of each concentration of different compounds. IC50 (nM) data was obtained by 4 parameter curve fitting (see Table 1).

[2] = molecular target: T5, recombinant human TRKA (G667C) (Homo sapiens, UniProt P04629, G667C); test: In vitro activity test on mutant TRKA (G667C) (HTRF KinEASE TK); conditions: 5.5 μM ATP, 30 min
T5 construct: purchased SignalChem
T5 sequence (P04629 33-796 G667C): as the sequence (P04629 33-796 G595R) above, with R563G, G635C counted along it
Experimental: as §6, §7, §8
0.026 ng/μL TRKA (G667C) kinase, 1 μM TK Substrate-biotin polypeptide substrate, 5.5 μm ATP, 1× enzymatic buffer, 5 mM MgCl2, and 1 mM DTT. The detection plate was White Proxiplate 384-Plus plate (PerkinElmer), and incubated at room temperature for 30 min, the assay volume was 10 μL.
as §4, §9

T1 sequence (P04629 33-796): as the sequence (P04629 33-796 G595R) above, with R563G counted along it

Row | Structure (SMILES) | IC50 (Recombinant human TRKA) [nM] | IC50 (Recombinant human TRKB) [nM] | IC50 (Recombinant human TRKC) [nM] | IC50 [1] [nM] | IC50 [2] [nM]
1 | OC[C@H](O)CN1CCC(n2cc(-c3c(Cl)cnc4ccc(N5C[C@@H](F)C[C@@H]5c5cc(F)ccc5F)nc34)cn2)CC1 [Example 40, (R)-3-(4-(4-(3-chloro-6-((2R,4S)-2-(2,5-difluorophenyl)-4-fluoropyrrolidin-1-yl)-1,5-naphthyridin-4-yl)-1H-pyrazol-1-yl)piperidin-1-yl)propane-1,2-diol] | < 1 | < 1 | < 1 | < 1 | < 1
2 | Fc1ccc(F)c([C@H]2C[C@H](F)CN2c2ccc3nccc(-c4cnn(C5CCOCC5)c4)c3n2)c1 [Example 12, 2-((2R,4S)-2-(2,5-difluorophenyl)-4-fluoropyrrolidin-1-yl)-8-(1-(tetrahydro-2H-pyran-4-yl)-1H-pyrazol-4-yl)-1,5-naphthyridine] | < 1 | < 1 | < 1 | < 1 | < 1
3 | O[C@@H]1CN=C(Nc2ccnc3ccc(N4C[C@@H](F)C[C@@H]4c4cc(F)ccc4F)nc23)OC1 [Example 98, (R)-2-((6-((2R,4S)-2-(2,5-difluorophenyl)-4-fluoropyrrolidin-1-yl)-1,5-naphthyridin-4-yl)amino)-5,6-dihydro-4H-1,3-oxazin-5-ol] | < 1 | < 1 | < 1 | < 1 | < 1
4 | CC1(C)CC(n2cc(-c3ccnc4ccc(N5C[C@@H](F)C[C@@H]5c5cc(F)ccc5F)nc34)cn2)CCN1 (stereo partly drawn) [Example 18, 2-((2R,4S)-2-(2,5-difluorophenyl)-4-fluoropyrrolidin-1-yl)-8-(1-(2,2-dimethylpiperidin-4-yl)-1H-pyrazol-4-yl)-1,5-naphthyridine] | < 1 | < 1 | < 1 | < 10 | < 10
5 | Fc1ccc(F)c([C@H]2C[C@H](F)CN2c2ccc3ncc(Cl)c(-c4cnn([C@@H]5CCCNC5)c4)c3n2)c1 [Example 54, 7-chloro-2-((2R,4S)-2-(2,5-difluorophenyl)-4-fluoropyrrolidin-1-yl)-8-(1-((R)-piperidin-3-yl)-1H-pyrazol-4-yl)-1,5-naphthyridine] | < 10 | < 10 | < 10 | < 10 | < 10
6 | O=S(=O)(Nc1ccnc2ccc(N3C[C@@H](F)C[C@@H]3c3cc(F)ccc3F)nc12)N1CC[C@H](O)C1 [Example 69, (S)—N-(6-((2R,4S)-2-(2,5-difluorophenyl)-4-fluoropyrrolidin-1-yl)-1,5-naphthyridin-4-yl)-3-hydroxypyrrolidin-1-sulfonamide] | < 1 | < 1 | < 1 | < 1 | < 10
7 | CN1CC(n2cc(-c3c(Cl)cnc4ccc(N5C[C@@H](F)C[C@@H]5c5cc(F)ccc5F)nc34)cn2)C1 [Example 23] | < 1 | < 1 | < 10 | < 1 | < 1
8 | Fc1ccc(F)c([C@H]2C[C@H](F)CN2c2ccc3ncc(Cl)c(-c4nnc(C5CCNCC5)o4)c3n2)c1 [Example 42, 2-(3-Chloro-6-((2R,4S)-2-(2,5-difluorophenyl)-4-fluoropyrrolidin-1-yl)-1,5-naphthyridin-4-yl)-5-(piperidin-4-yl)-1,3,4-oxadiazole] | < 1 | < 1 | < 1 | < 10 | < 10
9 | COc1ccc(F)cc1[C@H]1CCCN1c1ccc2ncc(Cl)c(-c3cnn(C4CCNCC4)c3)c2n1 [Example 33, (R)-7-chloro-2-(2-(5-fluoro-2-methoxyphenyl)pyrrolidin-1-yl)-8-(1-(piperidin-4-yl)-1H-pyrazol-4-yl)-1,5-naphthyridine] | < 1 | < 10 | < 50 | < 10 | < 10
10 | O[C@H]1CCN(c2nc(-c3c(F)cnc4ccc(N5C[C@@H](F)C[C@@H]5c5cc(F)ccc5F)nc34)no2)C1 [Example 77, (S)-1-(3-(6-((2R,4S)-2-(2,5-difluorophenyl)-4-fluoropyrrolidin-1-yl)-3-fluoro-1,5-naphthyridin-4-yl)-1,2,4-oxadiazol-5-yl)pyrrolidin-3-ol] | < 1 | < 10 | < 10 | < 1 | < 50
11 | O=C(Nc1ccnc2ccc(N3CCC[C@@H]3c3cc(F)ccc3F)nc12)N1CC[C@H](O)C1 [Example 27, (S)—N-(6-((R)-2-(2,5-difluorophenyl)pyrrolidin-1-yl)-1,5-naphthyridin-4-yl)-3-hydroxypyrrolidin-1-carboxamide] | < 1 | < 1 | < 1 | < 1 | < 50
12 | N#Cc1cnc2ccc(N3C[C@@H](F)C[C@@H]3c3cc(F)ccc3F)nc2c1-c1cnn(C2CCNCC2)c1 [Example 36, 6-((2R,4S)-2-(2,5-difluorophenyl)-4-fluoropyrrolidin-1-yl)-4-(1-(piperidin-4-yl)-1H-pyrazol-4-yl)-1,5-naphthyridin-3-carbonitrile] | < 1 | < 1 | < 1 | < 10 | < 10
13 | NC(=O)CN1CCC(n2cc(-c3c(F)cnc4ccc(N5C[C@@H](F)C[C@@H]5c5cc(F)ccc5F)nc34)cn2)CC1 [Example 74, 2-(4-(4-(6-((2R,4S)-2-(2,5-difluorophenyl)-4-fluoropyrrolidin-1-yl)-3-fluoro-1,5-naphthyridin-4-yl)-1H-pyrazol-1-yl)piperidin-1-yl)acetamide] | < 1 | < 1 | < 1 | < 10 | < 10
14 | COC1(C)CC(n2cc(-c3c(Cl)cnc4ccc(N5C[C@@H](F)C[C@@H]5c5cc(F)ccc5F)nc34)cn2)C1 (stereo partly drawn) [Example 38, 7-chloro-2-((2R,4S)-2-(2,5-difluorophenyl)-4-fluoropyrrolidin-1-yl)-8-(1-(3-methoxy-3-methylcyclobutyl)-1H-pyrazol-4-yl)-1,5-naphthyridine] | < 1 | < 10 | < 10 | < 50 | < 50
15 | CN1CCC(n2cc(-c3ccnc4ccc(N5C[C@@H](F)C[C@@H]5c5cc(F)ccc5F)nc34)cn2)CC1 [Example 13, 2-((2R,4S)-2-(2,5-difluorophenyl)-4-fluoropyrrolidin-1-yl)-8-(1-(1-methylpiperidin-4-yl)-1H-pyrazol-4-yl)-1,5-naphthyridine] | < 1 | < 1 | < 1 | < 1 | < 10
16 | NC(=O)c1ccnc2ccc(N3CCC[C@@H]3c3cc(F)ccc3F)nc12 [Example 10, (R)-6-(2-(2,5-difluorophenyl)pyrrolidin-1-yl)-1,5-naphthyridin-4-carboxamide] | < 1 | < 1 | < 1 | < 1 | < 100
17 | OCCN1CCC(n2cc(-c3c(Cl)cnc4ccc(N5C[C@@H](F)C[C@@H]5c5cc(F)ccc5F)nc34)cn2)CC1 [Example 32, 2-(4-(4-(3-chloro-6-((2R,4S)-2-(2,5-difluorophenyl)-4-fluoropyrrolidin-1-yl)-1,5-naphthyridin-4-yl)-1H-pyrazol-1-yl)piperidin-1-yl)ethan-1-ol] | < 1 | < 1 | < 1 | < 1 | < 1
